Results on ten compounds are retold here after BindingDB's records for doi:10.1021/jm001134q (Linkoping University, 2001).

The target in this assay is T1, Dimer of Gag-Pol polyprotein [489-587] (Human immunodeficiency virus 1, UniProt P12497).
T1 construct: 489-587
The assay can be described thus: Protease Inhibition Assay. The settings on record: pH 5; 30 °C. As for the experimental part:
A fluorimetric assay was used to determine the effects of the inhibitors on HIV-1 protease. This assay used an internally quenched fluorescent peptide substrate. The measurements were performed in 96-well plates with a Fluoroscan plate reader. Excitation and emission wavelengths were 355 nm and 500 nm, respectively.
Consider `O=C(N[C@H]1c2ccccc2C[C@H]1O)[C@H](OCc1ccc(F)cc1F)[C@H](O)[C@@H](O)[C@@H](OCc1ccc(F)cc1F)C(=O)N[C@H]1c2ccccc2C[C@H]1O` [N1,N6-Bis-[(2R)-hydroxy-1(S)-indanyl]-(2R,3R,4R,5R)-2.5-bis-(2,4-difluorobenzyloxy)-3,4-dihydroxyhexanediamide], for which the Ki was determined as 1.65 nM.
The compound `O=C(N[C@H]1c2ccccc2C[C@H]1O)[C@H](OCc1ccccc1)[C@H](O)[C@@H](O)[C@@H](OCc1ccccc1)C(=O)N[C@H]1c2ccccc2C[C@H]1O` [symmetric/asymmetric inhibitor 2] gave a Ki of 1.22 nM.
For the compound `O=C(N[C@H]1c2ccccc2C[C@H]1O)[C@H](OCc1cccc(F)c1)[C@H](O)[C@@H](O)[C@@H](OCc1cccc(F)c1)C(=O)N[C@H]1c2ccccc2C[C@H]1O` [(2R,3R,4R,5R)-2,5-bis[(3-fluorophenyl)methoxy]-3,4-dihydroxy-N,N'-bis[(1S,2R)-2-hydroxy-2,3-dihydro-1H-inden-1-yl]hexanediamide], the Ki was 7.13 nM.
In the case of `O=C(N[C@H]1c2ccccc2C[C@H]1O)[C@H](OCc1ccccc1F)[C@H](O)[C@@H](O)[C@@H](OCc1ccccc1F)C(=O)N[C@H]1c2ccccc2C[C@H]1O` [(2R,3R,4R,5R)-2,5-bis[(2-fluorophenyl)methoxy]-3,4-dihydroxy-N,N'-bis[(1S,2R)-2-hydroxy-2,3-dihydro-1H-inden-1-yl]hexanediamide], the affinity corresponds to a Ki of 3.26 nM.
`O=C(N[C@H]1c2ccccc2C[C@H]1O)[C@H](OCc1ccc(F)c(F)c1)[C@H](O)[C@@H](O)[C@@H](OCc1ccc(F)c(F)c1)C(=O)N[C@H]1c2ccccc2C[C@H]1O` [N1,N6-Bis-[(2R)-hydroxy-1(S)-indanyl]-(2R,3R,4R,5R)-2.5-bis-(3,4-difluorobenzyloxy)-3,4-dihydroxyhexanediamide]: the Ki was 3.9 nM.
Compound `O=C(N[C@H]1c2ccccc2C[C@H]1O)[C@H](OCc1cc(F)ccc1F)[C@H](O)[C@@H](O)[C@@H](OCc1cc(F)ccc1F)C(=O)N[C@H]1c2ccccc2C[C@H]1O` [(2R,3R,4R,5R)-2,5-bis[(2,5-difluorophenyl)methoxy]-3,4-dihydroxy-N,N'-bis[(1S,2R)-2-hydroxy-2,3-dihydro-1H-inden-1-yl]hexanediamide] came in with a Ki of 3.29 nM.
Compound `O=C(N[C@H]1c2ccccc2C[C@H]1O)[C@H](OCc1ccc(F)cc1)[C@H](O)[C@@H](O)[C@@H](OCc1ccc(F)cc1)C(=O)N[C@H]1c2ccccc2C[C@H]1O` [(2R,3R,4R,5R)-2,5-bis[(4-fluorophenyl)methoxy]-3,4-dihydroxy-N,N'-bis[(1S,2R)-2-hydroxy-2,3-dihydro-1H-inden-1-yl]hexanediamide] gave a Ki of 5.39 nM.
Consider `O=C(N[C@H]1c2ccccc2C[C@H]1O)[C@H](OCc1cccc(F)c1F)[C@H](O)[C@@H](O)[C@@H](OCc1cccc(F)c1F)C(=O)N[C@H]1c2ccccc2C[C@H]1O` [N1,N6-Bis-[(2R)-hydroxy-1(S)-indanyl]-(2R,3R,4R,5R)-2.5-bis-(2,3-difluorobenzyloxy)-3,4-dihydroxyhexanediamide], for which the Ki was 4 nM.
As for `O=C(N[C@H]1c2ccccc2C[C@H]1O)[C@H](OCc1cc(F)cc(F)c1)[C@H](O)[C@@H](O)[C@@H](OCc1cc(F)cc(F)c1)C(=O)N[C@H]1c2ccccc2C[C@H]1O` [(2R,3R,4R,5R)-2,5-bis[(3,5-difluorophenyl)methoxy]-3,4-dihydroxy-N,N'-bis[(1S,2R)-2-hydroxy-2,3-dihydro-1H-inden-1-yl]hexanediamide], the Ki worked out at 5 nM.
The figure for `O=C(N[C@H]1c2ccccc2C[C@H]1O)[C@H](OCc1c(F)cccc1F)[C@H](O)[C@@H](O)[C@@H](OCc1c(F)cccc1F)C(=O)N[C@H]1c2ccccc2C[C@H]1O` [N1,N6-Bis-[(2R)-hydroxy-1(S)-indanyl]-(2R,3R,4R,5R)-2.5-bis-(2,6-difluorobenzyloxy)-3,4-dihydroxyhexanediamide] is 1.64 nM.
